Reference: paper PMC12339163, “Combining Plant Bioactives With Antibiotics for Enhanced Antibiofilm Activity Against Uropathogenic Staphylococcus spp. and Cytotoxicity Evaluation” (Advances in Pharmacological and Pharmaceutical Sciences, 2025)
Values after ≈ are worked out from the molar mass of the structure shown. Values joined by “and” are separate entries in the source; they are usually repeats but may differ in a detail not shown here. Equal entries are not always repeated. Where two headings read alike, the source gives them in different places.

Experiments:
Raw 264.7 macrophages = test: Cytotoxicity, MTT assay; assay type: cell-based; conditions: Raw 264.7, MTT
Description: (§1) Two cell lines, including Raw 264.7 macrophages and the urinary epithelial cell line UROtsa obtained from the American Type Culture Collection (Rockville, MD, USA), were used. They were cultured in Dulbecco's modified Eagle's medium (DMEM), which was supplemented with 10% fetal bovine serum (FBS) and 1% penicillin, streptomycin, and fungizone (PSF). They were then grown at 37°C in a humidified environment containing 5% CO2.
(§2) The cytotoxicity of the selected synergistic combinations, as well as the individual constituents of combinations, against the abovementioned cell lines was performed by the MTT assay as previously described. Briefly, cells from each line were harvested in the logarithmic phase using trypsin (0.05% trypsin, 0.02% EDTA in PBS). Cell suspension was diluted with an appropriate growth medium to obtain a cell density of 10^4 cells/well. A 100 µL aliquot of each suspension was seeded into 96-well cell culture plates and incubated at 37°C in an atmosphere of 5% CO2 and 95% relative humidity. After 24 h of incubation, 100 µL of samples (ATBs and NPs) at concentrations varying from 0.01, 0.1, 1, 10, 100, and 1000, as well as the synergistic combinations (C1 to C5), was added to the wells containing the cells. Doxorubicin was used as a positive control. Appropriate controls with an equivalent concentration of DMSO were also included. Plates were incubated for 48 h, then the medium in each well was aspirated, and MTT solution (2 mg/mL in PBS) was diluted 1:10 with fresh medium and added to each well, and the plates were further incubated at 37°C for 4 h. Absorbance was measured on a BioTek microplate reader at 570 nm. The percentage of cell viability was calculated by comparing treated and untreated cells using the equation [39]:(3) cell viability %=ODtest/ODcontrol×100.
(§3) Then, the IC50 values of the samples having shown at least 50% inhibition were calculated by plotting the percentage of inhibition against the concentrations.

[1] = test system: UROtsa urinary epithelial cells; test: Cytotoxicity, MTT assay; assay type: cell-based; conditions: 48 h
Description: as §1, §2, §3

[2] = test system: planktonic cells of Staphylococcus saprophyticus; test: Checkerboard combination assay, planktonic cells; assay type: cell-based; conditions: S. saprophyticus, mean; for MIC: Staphylococcus saprophyticus
Description: (§4) The checkerboard assay, as previously described, was used for the determination of the fractional inhibitory concentration index (FICI). Briefly, 50 µL of MHB was distributed into each well of a 96-well microplate. ATBs were serially diluted along the abscissa, and NPs were serially diluted along the ordinate. Then, 100 µL of bacterial inoculum (1.5 × 10^6 CFU/mL) was added to each well and incubated at 37°C for 24 h. The final concentration ranged from 0.125 to 128 µg/mL for ATBs and 4–512 µg/mL for NPs. After incubation, a volume of 40 µL of INT solution (0.2 mg/mL) was added to each well, and the microplate was incubated at 37°C for 30 min. The wells containing bacterial inoculum and MHB were used as a positive control, while wells containing only MHB + 1% glucose were used as a negative control and used as a blank. Viable bacteria cells change the yellow dye of INT to a pink color. The MICs were considered to be the lowest NP concentrations that prevented the color change medium. Subsequently, the FICI was calculated according to the formula FICI = (MIC of the ATBs in combination/MIC of the ATBs alone) + (MIC of a natural substance in combination/MIC of the natural substance alone). FICI values were interpreted as follows: synergy when FICI ≤ 0.5; additive when 0.5 < FICI ≤ 1; indifference when 1 < FICI ≤ 4; and antagonism when FICI > 4.

[3] = test system: planktonic cells of Staphylococcus aureus; test: Checkerboard combination assay, planktonic cells; assay type: cell-based; conditions: S. aureus, mean; for MIC: Staphylococcus aureus
Description: as §4

[4] = test system: planktonic cells of Staphylococcus epidermidis; test: Checkerboard combination assay, planktonic cells; assay type: cell-based; conditions: planktonic S. epidermidis, mean MIC; for MIC alone, ATB: antibiotic alone; for MIC alone, NPs: natural product alone, in µg/mL
Description: as §4

S. aureus = test: MIC and MBC, broth microdilution; assay type: cell-based, Staphylococcus aureus; conditions: geometric mean, S. aureus (n = 3)
Description: Seven clinical isolates of Staphylococcus spp. including 2 S. aureus, 3 S. saprophyticus, and 2 S. epidermidis were used. They were isolated from urine samples in our previous study. Two reference strains (S. aureus ATCC1026 and S. epidermidis ATCC35984) obtained from the American Type Culture Collection were also included. They were kept in the mixture of glycerol and Mueller Hinton Broth (MHB) (1:1) at −20°C, and the activation was achieved using the streak technique on Mueller Hinton agar (MHA) medium.
The MICs of ATBs and NPs were determined by the broth microdilution method as previously described. NPs and ATBs were, respectively, prepared at 4096 µg/mL and 512 µg/mL and serially diluted twofold with MHB in a 96-well microplate at a volume of 100 µL. Then, the wells were filled with 100 µL of inoculum (1.5 × 10^6 CFU/mL) to give final concentrations ranging from 1024 µg/mL to 0.5 µg/mL and 128 µg/mL to 0.062 µg/mL of NPs and ATBs, respectively. The microplates were incubated for 24 h at 37°C. Wells containing only bacterial inoculum were used as the negative control. After incubation, a volume of 40 µL of INT solution (0.2 mg/mL) was added to each well, and the microplate was incubated at 37°C for 30 min. Viable bacteria cells change the yellow dye of INT to a pink color. The MIC was considered as the lowest concentration of the sample at which there was no change in the coloration of the medium, corresponding to the complete inhibition of microbial growth.
All tests were performed in triplicate.

[5] = test system: Staphylococcus aureus biofilm; test: Checkerboard combination assay, biofilm eradication; assay type: cell-based
Procedure, shortened: (§5)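 Biofilms preformed for 24 h were washed and exposed to antibiotics (0.0625–128 µg/mL) combined with NPs (4–512 µg/mL) for 24 h at 37°C in checkerboard format. Viability was read by MTT reduction to set MBEC, and FICI was calculated for the combination.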

[6] = test system: Staphylococcus saprophyticus biofilm; test: as above; assay type: cell-based
Procedure, shortened: as §5

[7] = Mus musculus, RAW264.7, 48 h, read-out: IC50
[8] = Epithelial cell, read-out: IC50
[9] = Staphylococcus aureus, antibiotics, read-out: MBC
[10] = Staphylococcus aureus, read-out: MIC
[11] = S. aureus biofilm eradication, antibiotic alone, mean MBEC
[12] = S. aureus, biofilm eradication, mean
[13] = S. saprophyticus biofilm eradication, antibiotic alone, mean MBEC
[14] = S. saprophyticus, biofilm eradication, mean
[15] = Staphylococcus aureus, natural products, read-out: MBC

Row | Structure (SMILES) | IC50 (Raw 264.7 macrophages; [7]) [µg/mL] | IC50 (Raw 264.7 macrophages; 48 h) | IC50 [1] | IC50 [1, 8] [µg/mL] | MIC ([2]; 24 h, read-out: MIC alone, ATB) [µg/mL] | MIC ([2]; read-out: MIC alone, ATB) [µg/mL] | MIC ([3]; 24 h, read-out: MIC alone, ATB) [µg/mL] | MIC ([3]; read-out: MIC alone, ATB) [µg/mL] | MIC alone, ATB [4] [µg/mL] | MBC (S. aureus; [9]) [µg/mL] | MIC (S. aureus; [10]) [µg/mL] | MBEC Alone ATB [5, 11] [µg/mL] | MBEC Alone ATB [6, 13] [µg/mL] | MIC ([2]; 24 h, read-out: MIC alone, NPs) [µg/mL] | MIC ([2]; read-out: MIC alone, NPs) [µg/mL] | MIC ([3]; 24 h, read-out: MIC alone, NPs) [µg/mL] | MIC ([3]; read-out: MIC alone, NPs) [µg/mL] | MIC alone, NPs [4] | MBC (S. aureus; [15]) [µg/mL] | further results
1 | Cc1nnc(SCC2=C(C(=O)O)N3C(=O)[C@@H](NC(=O)Cn4cnnn4)[C@H]3SC2)s1 [Cefazolin, cefazolin] | > 1000 | 504.26 µg/mL | — (IC50 > 1000 µg/mL) | > 1000 | 64.7 | 64.7 | 42.7 | 42.7 | 42.7 | > 128 | 42.7 (≈ 93.9 µM) | 42.66 | 10.66 | – | – | – | – | – | – | MBEC Alone ATB [5, 12]: 42.66 µg/mL; MBEC Alone ATB [6, 14]: 48 µg/mL
2 | NC[C@H]1O[C@H](O[C@H]2[C@H](O)[C@@H](O[C@H]3O[C@H](CO)[C@@H](O)[C@H](N)[C@H]3O)[C@H](N)C[C@@H]2N)[C@H](O)[C@@H](O)[C@@H]1O [Kanamycin, kanamycin] | – | — (IC50 > 1000 µg/mL) | — (IC50 > 1000 µg/mL) | – | – | – | – | – | 7.33 | – | – | 14.66 | 10.66 | – | – | – | – | – | – | MIC alone, ATB [2]: 14 µg/mL; MIC alone, ATB [3]: 22.66 µg/mL; MBC (S. aureus; antibiotics): 69.33 µg/mL (≈ 143 µM); MIC (S. aureus): 22.66 µg/mL (≈ 46.8 µM)
3 | COc1cc(/C=C/C(=O)CC(=O)/C=C/c2ccc(O)c(OC)c2)ccc1O [Curcumin, curcumin] | 94.4 | – | – | 51.9 | – | – | – | – | – | – | – | – | – | 149 | 149 | 235 | 235 | 384 | > 1020 | MIC alone, NPs ([2]; listed as Cur): 213.33 µg/mL; MIC (S. aureus; Staphylococcus aureus, 24 h, read-out: MIC): 244 µg/mL (≈ 661 µM); MBEC Alone NPs ([5]; S. aureus biofilm eradication, natural product alone, mean MBEC, listed as Cur): 128 µg/mL and 149.33 µg/mL and 170.66 µg/mL and 106.66 µg/mL; MBEC Alone NPs [5, 12]: 277.33 µg/mL; MBEC Alone NPs ([6]; S. saprophyticus biofilm eradication, natural product alone, mean MBEC, listed as Cur): 170.66 µg/mL and 213.33 µg/mL
4 | CC1(C)S[C@@H]2[C@H](NC(=O)[C@H](N)c3ccc(O)cc3)C(=O)N2[C@H]1C(=O)O [Amoxicillin, amoxicillin] | > 1000 | — (IC50 > 1000 µg/mL) | — (IC50 > 1000 µg/mL) | > 1000 | 22 | 22 | 86.7 | 86.7 | 26.8 | > 128 | 86.7 (≈ 237 µM) | 37.33 | 9.33 | – | – | – | – | – | – | –
5 | Cc1ccc(C(C)C)c(O)c1 [Thymol, thymol] | 442 | – | – | > 1000 | – | – | – | – | – | – | 299 (≈ 1990 µM) | – | – | 341 | 341 | 299 | 299 | 426.66 | > 1020 | MBEC Alone NPs [6, 14]: 128 µg/mL
